Measurements as given in patent US6806265B2, “Non-nucleoside reverse transcriptase inhibitors” (priority 2002, dated 2004).
Where two headings read alike, the source gives them in different places.

Tests used:
[1] = biological target: T1, HIV-1 RT double mutant K103N/Y181C (Human immunodeficiency virus type 1 group M subtype B, UniProt P03366, K702N/Y780C); experiment: biochemical
T1 construct: HIV-1 wild type reverse transcriptase as well as the clinically significant double mutant K103N/Y181C
Procedure: (§1) Utilizing the Reverse Transcriptase (RT) Assay described below, compounds were tested for their ability to inhibit the RNA-dependent DNA polymerase activity of HIV-1 RT. Certain specific compounds described in the Examples and in Tables 1-4, were so tested. The results of this testing appear in Table 5 as ranges of IC50 (nM) and EC50 (nM).
(§2) Reverse Transcriptase (RT) Assays

[2] = biological target: T2, HIV-1 wild type reverse transcriptase (Human immunodeficiency virus type 1 group M subtype B, UniProt P03366); experiment: biochemical
T2 construct: HIV-1 wild type reverse transcriptase
Procedure: as §1, §2

[3] = test system: HIV-1 wild type; experiment: microbe, parasite or virus in culture; type: cell-based
[4] = test system: HIV-1 double mutant K103N/Y181C; experiment: microbe, parasite or virus in culture; type: cell-based
[5] = RT double mutant K103N/Y181C, read-out: IC50 K103N/Y181C
[6] = wild type RT, read-out: IC50 WT RT
[7] = wild type, read-out: EC50 WT RT
[8] = double mutant K103N/Y181C, read-out: EC50 K103N/Y181C
[9] = Human immunodeficiency virus 1, read-out: EC50 WT RT (nM)
[10] = Human immunodeficiency virus 1, read-out: EC50 K103N/Y181C (nM)
[11] = Human immunodeficiency virus 1, wild type, read-out: EC50 WT RT

Compound	IC50 [1, 5]	IC50 [2, 6]	EC50 [3, 7]	EC50 [4, 8]	IC50 [1]	EC50 [4, 10]	further results
CCN1c2ncc(CCOc3ccc(-c4ccc(C(=O)O)cc4)cc3)cc2C(=O)N(C)c2cccnc21 [Entry 1001]	50 to 100 nM	< 50 nM	< 10 nM	> 50 nM	–	–	–
CCN1c2ncc(CCOc3ccc(-c4ccc(C(=O)O)cc4)cc3)cc2C(=O)N(C)c2ccc(Cl)nc21 [Entry 1002]	< 50 nM	< 50 nM	< 10 nM	–	–	–	–
CCN1c2ncc(CCOc3ccc(-c4ccc(C(=O)O)cc4)cc3C)cc2C(=O)N(C)c2cccnc21 [Entry 1003]	< 50 nM	< 50 nM	< 10 nM	< 10 nM	–	–	–
CCN1c2ncc(CCOc3ccc(-c4ccc(C(=O)O)cc4)cc3F)cc2C(=O)N(C)c2cccnc21 [Entry 1004]	> 100 nM	< 50 nM	< 10 nM	> 50 nM	–	–	–
CCN1c2ncc(CCOc3ccc(-c4ccc(C(=O)O)cc4)c(C)c3)cc2C(=O)N(C)c2cccnc21 [Entry 1005]	> 100 nM	< 50 nM	10 to 50 nM	> 50 nM	–	–	–
CCN1c2ncc(CCOc3ccc(-c4ccc(C(=O)O)cc4)c(Cl)c3)cc2C(=O)N(C)c2cccnc21 [Entry 1006]	50 to 100 nM	< 50 nM	10 to 50 nM	> 50 nM	–	–	–
CCN1c2ncc(CCOc3ccc(-c4ccc(CC(=O)O)cc4)cc3)cc2C(=O)N(C)c2cccnc21 [Entry 1007]	50 to 100 nM	< 50 nM	10 to 50 nM	> 50 nM	–	–	–
CCN1c2ncc(CCOc3ccc(-c4ccc(CC(=O)O)cc4)cc3C)cc2C(=O)N(C)c2cccnc21 [Entry 1008]	< 50 nM	< 50 nM	< 10 nM	< 10 nM	–	–	–
CCN1c2ncc(CCOc3ccc(-c4ccc(CC(=O)O)cc4)cc3C)cc2C(=O)Nc2c(C)ccnc21 [Entry 1009]	< 50 nM	< 50 nM	10 to 50 nM	–	–	–	–
CCN1c2ncc(CCOc3ccc(-c4ccc(C(C)C(=O)O)cc4)cc3C)cc2C(=O)N(C)c2cccnc21 (centres unmarked) [Entry 1010]	< 50 nM	< 50 nM	–	10 to 50 nM	–	–	–
CCN1c2ncc(CCOc3ccc(-c4cccc(C(=O)O)c4)cc3)cc2C(=O)N(C)c2cccnc21 [Entry 1012]	> 100 nM	< 50 nM	< 10 nM	10 to 50 nM	–	–	–
CCN1c2ncc(CCOc3ccc(-c4cccc(C(=O)O)c4)cc3C)cc2C(=O)N(C)c2cccnc21 [Entry 1013, 4′-[2-(11-Ethyl-6,11-dihydro-5-methyl-6-oxo-5H-dipyrido[3,2-b:2′,3′-e][1,4]diazepin-8-yl)ethoxy]-3′-methyl-[1,1′-biphenyl]-3-carboxylic acid]	–	< 50 nM	–	–	< 50 nM	10 to 50 nM	EC50 [3, 9]: < 10 nM
CCN1c2ncc(CCOc3ccc(-c4cccc(CC(=O)O)c4)cc3)cc2C(=O)N(C)c2cccnc21 [Entry 1014]	> 100 nM	< 50 nM	< 10 nM	10 to 50 nM	–	–	–
CCN1c2ncc(CCOc3ccc(-c4cccc(CC(=O)O)c4)cc3C)cc2C(=O)N(C)c2cccnc21 [Entry 1015]	< 50 nM	< 50 nM	< 10 nM	< 10 nM	–	–	–
CCN1c2ncc(CCOc3ccc(-c4ccc(CC(=O)O)c(C)c4)cc3C)cc2C(=O)N(C)c2cccnc21 [Entry 1021]	< 50 nM	< 50 nM	–	10 to 50 nM	–	–	–
CCN1c2ncc(CCOc3ccc(-c4ccc(CC(=O)O)cc4F)cc3C)cc2C(=O)N(C)c2cccnc21 [Entry 1024]	< 50 nM	< 50 nM	–	10 to 50 nM	–	–	–
CCN1c2ncc(CCOc3ccc(-c4ccc(CC(=O)O)cc4OC)cc3C)cc2C(=O)N(C)c2cccnc21 [Entry 1026]	< 50 nM	< 50 nM	–	10 to 50 nM	–	–	–
CCN1c2ncc(CCOc3ccc(-c4cc(C(=O)O)ccc4C)cc3C)cc2C(=O)N(C)c2cccnc21 [Entry 1028]	> 100 nM	< 50 nM	–	10 to 50 nM	–	–	–
CCN1c2ncc(CCOc3ccc(-c4ccc(Cl)c(C(=O)O)c4)cc3C)cc2C(=O)N(C)c2cccnc21 [Entry 1032]	50 to 100 nM	< 50 nM	–	10 to 50 nM	–	–	–
CCN1c2ncc(CCOc3ccc(-c4ccc(O)c(C(=O)O)c4)cc3C)cc2C(=O)N(C)c2cccnc21 [Entry 1033]	50 to 100 nM	< 50 nM	–	> 50 nM	–	–	–
CCN1c2ncc(CCOc3ccc(-c4ccc(N)c(C(=O)O)c4)cc3C)cc2C(=O)N(C)c2cccnc21 [Entry 1034, 4-Amino-4′-[2-(11-ethyl-6,11-dihydro-5-methyl-6-oxo-5H-dipyrido[3,2-b:2′,3′-e][1,4]diazepin-8-yl)ethoxy]-3′-methyl-[1,1′-biphenyl]-3-carboxylic acid]	–	< 50 nM	–	–	< 50 nM	< 10 nM	EC50 [3, 9]: < 10 nM

Compound	IC50 [1, 5]	IC50 [2, 6]	EC50 [3, 7]	EC50 [4, 8]	IC50 [1]	EC50 [4, 10]	further results
CCN1c2ncc(CCOc3ccc(-c4cc(CC(=O)O)ccc4C)cc3C)cc2C(=O)N(C)c2cccnc21 [Entry 1036]	50 to 100 nM	< 50 nM	–	10 to 50 nM	–	–	–
CCN1c2ncc(CCOc3ccc(-c4cc(CC(=O)O)ccc4OC)cc3C)cc2C(=O)N(C)c2cccnc21 [Entry 1037]	50 to 100 nM	< 50 nM	–	10 to 50 nM	–	–	–
CCN1c2ncc(CCOc3ccc(-c4ccc(Cl)c(CC(=O)O)c4)cc3C)cc2C(=O)N(C)c2cccnc21 [Entry 1038]	< 50 nM	< 50 nM	–	10 to 50 nM	–	–	–
CCN1c2ncc(CCOc3ccc(-c4cc(C(=O)O)on4)cc3C)cc2C(=O)N(C)c2cccnc21 [Entry 1041, 3-{4-[2-(11-Ethyl-6,11-dihydro-5-methyl-6-oxo-5H-dipyrido[3,2-b:2′,3′-e][1,4]diazepin-8-yl)ethoxy]-3-methylphenyl}-5-isoxazolecarboxylic acid]	–	< 50 nM	–	–	< 50 nM	> 50 nM	EC50 [3, 11]: > 50 nM
CCN1c2ncc(CCOc3ccc(-c4ccc(C(=O)O)o4)cc3C)cc2C(=O)N(C)c2cccnc21 [Entry 1046, 5-{4-[2-(11-Ethyl-6,11-dihydro-5-methyl-6-oxo-5H-dipyrido[3,2-b:2′,3′-e][1,4]diazepin-8-yl)ethoxy]-3-methylphenyl}-2-furanecarboxylic acid]	–	< 50 nM	–	–	> 100 nM	> 50 nM	EC50 [3, 11]: < 10 nM
CCN1c2ncc(CCOc3ccc(-c4cccnc4)cc3C)cc2C(=O)N(C)c2cccnc21 [Entry 1067]	< 50 nM	–	–	< 10 nM	–	–	IC50 ([2]; read-out: IC50 WT RT): < 50 nM
CCN1c2ncc(CCOc3ccc(-c4ncc[nH]4)cc3C)cc2C(=O)N(C)c2cccnc21 [Entry 1096, 11-Ethyl-5,11-dihydro-8-{2-[4-(1H-imidazol-2-yl)-2-methylphenoxy]ethyl}-5-methyl-6H-dipyrido[3,2-b:2′,3′-e][1,4]diazepin-6-one]	–	< 50 nM	–	–	< 50 nM	< 10 nM	–
CCN1c2ncc(CCOc3ccc(-c4nccn4C)cc3C)cc2C(=O)N(C)c2cccnc21 [Entry 1097, 11-Ethyl-5,11-dihydro-5-methyl-8-{2-[2-methyl-4-(1-methyl-1H-imidazol-2-yl)phenoxy]ethyl}-6H-dipyrido[3,2-b:2′,3′-e][1,4]diazepin-6-one]	–	< 50 nM	–	–	50 to 100 nM	10 to 50 nM	–
CCN1c2ncccc2NC(=O)c2cc(CCOc3ccc(-c4ccc[n+]([O-])c4)cc3C)cnc21 [Entry 1100]	–	< 50 nM	< 10 nM	10 to 50 nM	–	–	–
CCN1c2ncc(CCOc3ccc(C(=O)N4CCC(C(=O)O)CC4)cc3C)cc2C(=O)N(C)c2cccnc21 [Entry 3008]	–	< 50 nM	–	–	50 to 100 nM	–	EC50 [3, 11]: 10 to 50 nM
CCN1c2ncc(CCOc3ccc(C(=O)Nc4ccc(C(=O)O)cn4)cc3C)cc2C(=O)N(C)c2cccnc21 [Entry 3014]	–	–	–	–	< 50 nM	10 to 50 nM	IC50 [2]: < 50 nM
CCN1c2ncc(CCOc3ccc(C(=O)N(C)c4ccc(C(=O)O)cc4)cc3C)cc2C(=O)N(C)c2cccnc21 [Entry 3016]	–	< 50 nM	–	–	50 to 100 nM	10 to 50 nM	–
CCN1c2ncc(CCOc3ccc(Nc4nc(C(=O)O)cs4)cc3C)cc2C(=O)N(C)c2cccnc21 [Entry 3026]	–	–	–	–	50 to 100 nM	10 to 50 nM	EC50 [3, 11]: < 10 nM
CCN1c2ncc(CCOc3ccc(S(=O)(=O)c4ccc(C(=O)O)cc4)cc3C)cc2C(=O)N(C)c2cccnc21 [Entry 3028]	–	< 50 nM	–	–	< 50 nM	> 50 nM	–
CCN1c2ncc(CCOc3ccc(S(=O)(=O)c4cccc(CC(=O)O)c4)cc3C)cc2C(=O)N(C)c2cccnc21 [Entry 3029]	–	–	–	–	< 50 nM	> 50 nM	–
CCN1c2ncc(CCOc3ccc(Nc4ccccn4)cc3C)cc2C(=O)N(C)c2cccnc21 [Entry 3036]	–	–	–	–	< 50 nM	< 10 nM	–
CCN1c2ncc(CCOc3ccc(S(=O)(=O)c4ccncc4)cc3C)cc2C(=O)N(C)c2cccnc21 [Entry 3037]	–	–	–	–	< 50 nM	< 10 nM	–
CCN1c2ncc(CCOc3ccc(NC(=O)NCC(=O)O)cc3C)cc2C(=O)N(C)c2cccnc21 [Entry 4004]	–	< 50 nM	–	–	> 100 nM	–	EC50 [3, 11]: 10 to 50 nM
CCN1c2ncc(CCOc3ccc(NC(=O)/C=C/C(=O)O)cc3C)cc2C(=O)N(C)c2cccnc21 [Entry 4010]	–	< 50 nM	–	–	50 to 100 nM	–	EC50 [3, 11]: > 50 nM
CCN1c2ncc(CCOc3ccc(C(=O)NNCC(=O)O)cc3C)cc2C(=O)N(C)c2cccnc21 [Entry 4015]	–	< 50 nM	–	–	> 100 nM	–	EC50 [3, 11]: 10 to 50 nM
